Measurements taken from patent publication US20200246316A1, “METHODS OF TREATING POST-SURGICAL PAIN WITH A THIAZOLINE ANTI-HYPERALGESIC AGENT” (CERSCI THERAPEUTICS, INC., priority 2019, published 2020).
Structures can show the parent of a compound that is named as a salt. Where two headings read alike, the source gives them in different places.

Test: Rat 28-day GLP repeat dose PO study (toxicokinetics)
Format: in vivo
Method: The vehicle was 0.5% HPMC. There were 15 rats/sex in the control and high dose groups (5/sex for a 14-day recovery period) while the low and mid doses consisted of 10 rats/sex. Satellite groups of rats/sex/group for toxicokinetics were included.
Rats in Group 1 (Vehicle Control) were bled once at approximately 1 hour post-dose on those days.

[1] = female, rat, in vivo, po, 50 mg/kg, Day 1, F, 50 mg/kg PO
[2] = female, rat, in vivo, po, 500 mg/kg, Day 14, F, 500 mg/kg PO
[3] = female, rat, in vivo, po, 500 mg/kg, Day 28, F, 500 mg/kg PO
[4] = female, rat, in vivo, po, 1000 mg/kg, Day 1, F, 1000 mg/kg PO
[5] = female, rat, in vivo, po, 1000 mg/kg, Day 14, F, 1000 mg/kg PO
[6] = female, rat, in vivo, po, 1000 mg/kg, Day 28, F, 1000 mg/kg PO
[7] = female, rat, in vivo, po, 2000 mg/kg, Day 1, F, 2000 mg/kg PO
[8] = female, rat, in vivo, po, 2000 mg/kg, Day 14, F, 2000 mg/kg PO
[9] = female, rat, in vivo, po, 2000 mg/kg, Day 28, F, 2000 mg/kg PO
[10] = male, rat, in vivo, po, 500 mg/kg, Day 1, M, 500 mg/kg PO

CC1(C)SC(Nc2ccccc2O)=N[C@@H]1C(=O)O [Compound 1, (R)-2-(2-hydroxyphenylamino)-5,5-dimethyl-4,5-dihydrothiazole-4-carboxylic acid mono-hydrochloride]
Cmax (28-day pivotal rat study, at some doses): over 100 μg/mL | Tmax (28-day study, rat): ≤ 1 h | overall mean t1/2 (all sexes, days, dose levels): 4.24 h | Tmax (both sexes, rat, in vivo, po): 0.5 to 2 h | half-life (both sexes, rat, in vivo, po): 3 to 8 h | Tmax (both sexes, rat, in vivo, po, Days 1, 14 and 28, 500 to 2000 mg/kg PO, read-out: median tmax): 1 h | Tmax (both sexes, rat, in vivo, po, Days 14 and 28, all dose levels and sexes, read-out: overall median tmax): 1 h | overall mean V/F (both, rat, in vivo): 12.5 L/kg | overall mean CL/F (both, rat, in vivo, po): 35.2 mL/min/kg | AUC [1]: 298 µg·h/mL | AUC(0-inf) [1]: 299 µg·h/mL | CL/F (female, rat, in vivo, po, 50 mg/kg, Day 1, F, 50 mg/kg PO, read-out: CL/F (CLz/F) (converted)): 27.8 mL/min/kg | Cmax (female, rat, in vivo, po, 50 mg/kg, Day 1, F, 50 mg/kg PO, read-out: Cmax): 74.8 µg/mL | Vd/F (female, rat, in vivo, po, 50 mg/kg, Day 1, F, 50 mg/kg PO, read-out: V/F (Vz/F)): 8.1 L/kg | half-life (female, rat, in vivo, po, 50 mg/kg, Day 1, F, 50 mg/kg PO, read-out: t1/2 (converted)): 3.36 h | AUC [2]: 223 µg·h/mL | AUC(0-inf) [2]: 225 µg·h/mL | CL/F (female, rat, in vivo, po, 500 mg/kg, Day 14, F, 500 mg/kg PO, read-out: CL/F (CLss/F) (converted)): 37.5 mL/min/kg | Cmax (female, rat, in vivo, po, 500 mg/kg, Day 14, F, 500 mg/kg PO, read-out: Cmax): 75 µg/mL | Vd/F (female, rat, in vivo, po, 500 mg/kg, Day 14, F, 500 mg/kg PO, read-out: V/F (Vss/F)): 13.6 L/kg | half-life (female, rat, in vivo, po, 500 mg/kg, Day 14, F, 500 mg/kg PO, read-out: t1/2 (converted)): 4.2 h | Tmax (female, rat, in vivo, po, 500 mg/kg, Day 14, F, 500 mg/kg PO, read-out: tmax): 1 h | AUC [3]: 297 µg·h/mL | AUC(0-inf) [3]: 303 µg·h/mL | CL/F (female, rat, in vivo, po, 500 mg/kg, Day 28, F, 500 mg/kg PO, read-out: CL/F (CLss/F) (converted)): 28 mL/min/kg | Cmax (female, rat, in vivo, po, 500 mg/kg, Day 28, F, 500 mg/kg PO, read-out: Cmax): 86.4 µg/mL | Vd/F (female, rat, in vivo, po, 500 mg/kg, Day 28, F, 500 mg/kg PO, read-out: V/F (Vss/F)): 11.2 L/kg | half-life (female, rat, in vivo, po, 500 mg/kg, Day 28, F, 500 mg/kg PO, read-out: t1/2 (converted)): 4.62 h | Tmax (female, rat, in vivo, po, 500 mg/kg, Day 28, F, 500 mg/kg PO, read-out: tmax): 0.5 h | AUC [4]: 788 µg·h/mL | AUC(0-inf) [4]: 794 µg·h/mL | CL/F (female, rat, in vivo, po, 1000 mg/kg, Day 1, F, 1000 mg/kg PO, read-out: CL/F (CLz/F) (converted)): 21 mL/min/kg | Cmax (female, rat, in vivo, po, 1000 mg/kg, Day 1, F, 1000 mg/kg PO, read-out: Cmax): 108 µg/mL | Vd/F (female, rat, in vivo, po, 1000 mg/kg, Day 1, F, 1000 mg/kg PO, read-out: V/F (Vz/F)): 6.15 L/kg | half-life (female, rat, in vivo, po, 1000 mg/kg, Day 1, F, 1000 mg/kg PO, read-out: t1/2 (converted)): 3.39 h | AUC [5]: 430 µg·h/mL | AUC(0-inf) [5]: 437 µg·h/mL | CL/F (female, rat, in vivo, po, 1000 mg/kg, Day 14, F, 1000 mg/kg PO, read-out: CL/F (CLss/F) (converted)): 38.7 mL/min/kg | Cmax (female, rat, in vivo, po, 1000 mg/kg, Day 14, F, 1000 mg/kg PO, read-out: Cmax): 96.3 µg/mL | Vd/F (female, rat, in vivo, po, 1000 mg/kg, Day 14, F, 1000 mg/kg PO, read-out: V/F (Vss/F)): 14 L/kg | half-life (female, rat, in vivo, po, 1000 mg/kg, Day 14, F, 1000 mg/kg PO, read-out: t1/2 (converted)): 4.19 h | AUC [6]: 736 µg·h/mL | AUC(0-inf) [6]: 741 µg·h/mL | CL/F (female, rat, in vivo, po, 1000 mg/kg, Day 28, F, 1000 mg/kg PO, read-out: CL/F (CLss/F) (converted)): 22.7 mL/min/kg | Cmax (female, rat, in vivo, po, 1000 mg/kg, Day 28, F, 1000 mg/kg PO, read-out: Cmax): 128 µg/mL | Vd/F (female, rat, in vivo, po, 1000 mg/kg, Day 28, F, 1000 mg/kg PO, read-out: V/F (Vss/F)): 6.26 L/kg | half-life (female, rat, in vivo, po, 1000 mg/kg, Day 28, F, 1000 mg/kg PO, read-out: t1/2 (converted)): 3.2 h | Tmax (female, rat, in vivo, po, 1000 mg/kg, Day 28, F, 1000 mg/kg PO, read-out: tmax): 1 h | AUC [7]: 1160 µg·h/mL | AUC(0-inf) [7]: 1320 µg·h/mL | CL/F (female, rat, in vivo, po, 2000 mg/kg, Day 1, F, 2000 mg/kg PO, read-out: CL/F (CLz/F) (converted)): 25.2 mL/min/kg | Cmax (female, rat, in vivo, po, 2000 mg/kg, Day 1, F, 2000 mg/kg PO, read-out: Cmax): 118 µg/mL | Vd/F (female, rat, in vivo, po, 2000 mg/kg, Day 1, F, 2000 mg/kg PO, read-out: V/F (Vz/F)): 17.6 L/kg | AUC [8]: 942 µg·h/mL | AUC(0-inf) [8]: 952 µg·h/mL | CL/F (female, rat, in vivo, po, 2000 mg/kg, Day 14, F, 2000 mg/kg PO, read-out: CL/F (CLss/F) (converted)): 35.3 mL/min/kg | Cmax (female, rat, in vivo, po, 2000 mg/kg, Day 14, F, 2000 mg/kg PO, read-out: Cmax): 127 µg/mL | Vd/F (female, rat, in vivo, po, 2000 mg/kg, Day 14, F, 2000 mg/kg PO, read-out: V/F (Vss/F)): 10.9 L/kg | half-life (female, rat, in vivo, po, 2000 mg/kg, Day 14, F, 2000 mg/kg PO, read-out: t1/2 (converted)): 3.56 h | Tmax (female, rat, in vivo, po, 2000 mg/kg, Day 14, F, 2000 mg/kg PO, read-out: tmax): 1 h | AUC [9]: 1300 µg·h/mL | AUC(0-inf) [9]: 1330 µg·h/mL | CL/F (female, rat, in vivo, po, 2000 mg/kg, Day 28, F, 2000 mg/kg PO, read-out: CL/F (CLss/F) (converted)): 25.5 mL/min/kg | Cmax (female, rat, in vivo, po, 2000 mg/kg, Day 28, F, 2000 mg/kg PO, read-out: Cmax): 139 µg/mL | Vd/F (female, rat, in vivo, po, 2000 mg/kg, Day 28, F, 2000 mg/kg PO, read-out: V/F (Vss/F)): 8.7 L/kg | half-life (female, rat, in vivo, po, 2000 mg/kg, Day 28, F, 2000 mg/kg PO, read-out: t1/2 (converted)): 3.93 h | Tmax (female, rat, in vivo, po, 2000 mg/kg, Day 28, F, 2000 mg/kg PO, read-out: tmax): 0.5 h | AUC [10]: 270 µg·h/mL | AUC(0-inf) [10]: 275 µg·h/mL | CL/F (male, rat, in vivo, po, 500 mg/kg, Day 1, M, 500 mg/kg PO, read-out: CL/F (CLz/F) (converted)): 30.3 mL/min/kg | Cmax (male, rat, in vivo, po, 500 mg/kg, Day 1, M, 500 mg/kg PO, read-out: Cmax): 55.1 µg/mL
